TGI data for 12 compounds are collected here from PubChem BioAssay (NCI).

Test systems include 786-0 renal; CCRF-CEM leukemia; M14 melanoma; MDA-N; NCI-H226 lung; NCI-H23 lung; PC-3 prostate; SW-620 colon; T-47D breast; UACC-257 melanoma; UO-31 renal.
Common to all, as to assay: inhibition of tumour cell growth, NCI panel, 48 h

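48-hour exposure; five concentrations; linearly interpolated endpoints. TGI marks complete inhibition of growth.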

Turning to `COc1ccc2nc(-c3ccccc3)cc(OCC(=O)O)c2c1`, the TGI in the assay with 786-0 renal, in the assay with CCRF-CEM leukemia, with M14 melanoma, in the assay on MDA-N, in the assay on NCI-H226 lung and with NCI-H23 lung was above 100 µM throughout. Also, the TGI was above 100 µM with PC-3 prostate; above 100 µM in the assay with SW-620 colon; above 100 µM with T-47D breast; above 100 µM in the assay on UACC-257 melanoma; 51.3 µM in the assay on UO-31 renal.
For `O=C(O)CCS/C(=C\C(SCCC(=O)O)c1ccc(Cl)cc1)c1ccc(Cl)cc1` (configuration not stated), the TGI with 786-0 renal, in the assay with CCRF-CEM leukemia, in the assay with M14 melanoma, with MDA-N, with NCI-H226 lung and in the assay on NCI-H23 lung was above 100 µM each time. Also, the TGI in the assay with PC-3 prostate, in the assay on SW-620 colon, in the assay with T-47D breast, in the assay with UACC-257 melanoma and with UO-31 renal was above 100 µM throughout.
Consider `COc1c(/C=C/C(C)(C)O)cc(C2CC(=O)c3c(O)cc(O)cc3O2)cc1CC=C(C)C` (configuration not stated), for which the TGI is 18.1 µM with 786-0 renal; above 50 µM with CCRF-CEM leukemia; 16 µM in the assay with M14 melanoma; 20.5 µM with MDA-N; 17.8 µM with NCI-H226 lung; 18.3 µM in the assay on NCI-H23 lung. Moreover, the TGI with PC-3 prostate is 16.3 µM; with SW-620 colon it was above 50 µM; in the assay with T-47D breast it was 33.2 µM; with UACC-257 melanoma, 15.9 µM; with UO-31 renal, 1.6 µM.
On to `CC(=N\N)/C(C)=N/N=C(C)/C(C)=N/N`, for which the TGI in the assay on 786-0 renal, in the assay on CCRF-CEM leukemia, in the assay on M14 melanoma, in the assay on MDA-N, in the assay on NCI-H226 lung and in the assay with NCI-H23 lung was above 100 µM throughout. Further, the TGI with PC-3 prostate, in the assay with SW-620 colon, in the assay with T-47D breast, in the assay on UACC-257 melanoma and in the assay with UO-31 renal was above 100 µM in each case.
On to `CC[C@@]1(O)C(=O)OCc2c1cc1n(c2=O)Cc2c-1nc1ccccc1c2/C=N\NC(=O)C1CCCN1` (some centres not stated), for which the TGI was 8.01 µM in the assay on 786-0 renal; above 100 µM in the assay on CCRF-CEM leukemia; 5.81 µM with M14 melanoma; above 100 µM with MDA-N; 2.8 µM in the assay with NCI-H226 lung; 0.965 µM in the assay on NCI-H23 lung. The TGI in the assay on PC-3 prostate was above 100 µM; with SW-620 colon it was above 73.8 µM; in the assay on T-47D breast it was above 100 µM; with UACC-257 melanoma it was above 95.4 µM; in the assay on UO-31 renal it was 8.27 µM.
Turning to `Cc1ccc2c(c1)C(=O)c1nc(C)ccc1C2=O`, the TGI in the assay with 786-0 renal was above 100 µM; in the assay on CCRF-CEM leukemia, above 100 µM; in the assay with M14 melanoma, above 100 µM; in the assay with MDA-N, 39.9 µM; with NCI-H226 lung, above 100 µM; with NCI-H23 lung, 56.7 µM. The TGI was above 100 µM in the assay on PC-3 prostate; above 100 µM in the assay with SW-620 colon; above 100 µM with T-47D breast; 45.2 µM in the assay on UACC-257 melanoma; 86.2 µM with UO-31 renal.
As to `CCOC(=O)c1c(N=P(c2ccccc2)(c2ccccc2)c2ccccc2)nnc(-c2ccccc2)c1-c1ccccc1`, the TGI in the assay on 786-0 renal, in the assay on CCRF-CEM leukemia, in the assay with M14 melanoma, with MDA-N, with NCI-H226 lung and in the assay with NCI-H23 lung was above 100 µM throughout. The TGI with PC-3 prostate, with SW-620 colon, in the assay on T-47D breast, with UACC-257 melanoma and in the assay on UO-31 renal was above 100 µM each time.
On to `COc1ccc(-n2[nH]nc(C(N)=O)c2=O)cc1`, for which the TGI in the assay with 786-0 renal, in the assay on CCRF-CEM leukemia, in the assay with M14 melanoma, with MDA-N, with NCI-H226 lung and in the assay on NCI-H23 lung was above 100 µM in each case. The TGI in the assay with PC-3 prostate, in the assay with SW-620 colon, in the assay on T-47D breast, with UACC-257 melanoma and with UO-31 renal was above 100 µM each time.
Turning to `COC(=O)C1Cc2cc3c(cc2C1=O)CCCC3` (configuration not stated), the TGI in the assay on 786-0 renal is above 100 µM; in the assay with CCRF-CEM leukemia it was above 100 µM; in the assay with M14 melanoma, above 100 µM; in the assay with MDA-N, above 100 µM; with NCI-H226 lung, 87 µM; with NCI-H23 lung it was above 100 µM. The TGI in the assay with PC-3 prostate, with SW-620 colon, in the assay with T-47D breast, in the assay on UACC-257 melanoma and in the assay on UO-31 renal was above 100 µM throughout.
`CC1(C)OC2[C@@H](CO[C@@]3([C@@H](O)CCO)OC(C)(C)O[C@@H]23)O1` (some centres not stated): the TGI in the assay with 786-0 renal, with CCRF-CEM leukemia, with M14 melanoma, with MDA-N, in the assay on NCI-H226 lung and with NCI-H23 lung was above 100 µM each time. For the same compound, the TGI in the assay with PC-3 prostate, with SW-620 colon, in the assay on T-47D breast, in the assay on UACC-257 melanoma and in the assay on UO-31 renal was above 100 µM each time.
For the compound `Cc1cc2/c(=C\c3ccc(N(C)C)cc3)c3ccccc3n2[n+]1C`, the TGI was 8.77 µM in the assay on 786-0 renal; above 100 µM in the assay with CCRF-CEM leukemia; 3.73 µM with M14 melanoma; 1.58 µM in the assay with MDA-N; 5.87 µM in the assay with NCI-H226 lung; 3.23 µM in the assay with NCI-H23 lung. Also, the TGI with PC-3 prostate was 2.38 µM; in the assay on SW-620 colon, above 32 µM; in the assay on T-47D breast it was 3.76 µM; in the assay on UACC-257 melanoma it was 1.07 µM; in the assay with UO-31 renal it was 15.3 µM.
For `CSc1ccc(-c2cc(-c3nc4ccccc4[nH]3)no2)cc1`, the TGI was above 100 µM with 786-0 renal; above 100 µM with CCRF-CEM leukemia; 56.2 µM in the assay with M14 melanoma; above 100 µM in the assay on MDA-N; above 100 µM in the assay with NCI-H226 lung; 66 µM in the assay on NCI-H23 lung. Further, the TGI in the assay with PC-3 prostate is above 100 µM; with SW-620 colon, above 100 µM; with T-47D breast, 37.3 µM; in the assay on UACC-257 melanoma, 85.9 µM; with UO-31 renal, 43.5 µM.
